Data on 88 compounds can be found in PubChem BioAssay AID463204 (Broad Institute, 2010).

Calls of active or inactive are those of the source.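 How the source made its calls: active means AC50 no more than ten times the top concentration tested, that is within one log above it; inconclusive means flat curve fit with activity between 30% and 70%, or invalid poor fit; inactive means AC50 beyond ten times the top tested dose.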 Residues, ends and D or L forms follow the SMILES beside them.

The assay has as its system S. cerevisiae Mot1-301 ts growth rescue, BacTiter-Glo ATP luminescence. The experiment in a line: growth rescue of Mot1-301 ts yeast, confirmation, SUMOylation pathway inhibitor project, whole organism, S. cerevisiae, Mot1-301 ts mutant, luminescence, dose retest (AID 463204).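 Further: growth at restrictive 38.5 degrees C of Mot1-301 OY566 strain; actives raise luminescence by restoring growth of the ts mutant at high temperature.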
`Fc1ccc2c(c1)nnn2C1CCN(Cc2nnnn2C2CCCCC2)CC1`: the AC50 was > 42 µM (inactive).
For `CCOc1c(P(=S)(N(C)C)N(C)C)c(C)nn1-c1ccccc1`, the AC50 is > 42 µM (inactive).
The figure for `CSCCc1nc(SCC(=O)Nc2nnc(C)s2)[nH]c1C` is > 42 µM (inactive); for `CC(=O)NC(CC(C)C)C(=O)NC(CO)C(=O)NC(CCC(=O)O)C(=O)NC(C)C(=O)NC(CC(C)C)C(N)=O` (stereo not drawn) (Ac-LSEAL-NH2; configuration not given here) it is > 42 µM (inactive); for `O=C(CCSc1nnc(-c2ccncc2)o1)Nc1ccc(Cl)cc1` it is > 42 µM (inactive).
For `CCN(CC)c1nc(Nc2ccc(Cl)cc2)nc(OCC#N)n1`, the AC50 was > 42 µM (inactive).
`COc1cc(/C=N/n2c(C3CCCCC3)n[nH]c2=S)cc(OC)c1O`: the AC50 is > 42 µM (inactive).
Next, `CCOC(=O)N1CCN(C(=O)c2ccccc2-c2ccccc2)CC1`: > 42 µM (inactive); `CCOC(=O)N1CCN(C(=O)c2ccc(OC)c(OC)c2)CC1`: > 42 µM (inactive); `COc1ccc(CCN(C)CCCC(C#N)(c2ccc(OC)c(OC)c2)C(C)C)cc1OC` (stereo not drawn): > 42 µM (inactive).
The figure for `CC(NC(=O)C1CCCN(S(=O)(=O)N2CCOCC2)C1)c1ccccc1` (stereo not drawn) is > 42 µM (inactive); for `Cc1cc([N+](=O)[O-])nn1CC(=O)NNC(=S)Nc1ccc([N+](=O)[O-])cc1` it is > 42 µM (inactive); for `CCOC(=O)c1sc(N/N=C/c2ccc(N(C)C)cc2)nc1C` it is > 42 µM (inactive).
Next, `CCOC(=O)C1CCN(CC(O)COCc2ccccc2)CC1` (stereo not drawn): > 42 µM (inactive); `CC(=O)N1CCCc2cc(S(=O)(=O)Nc3ccc(C)cc3C)ccc21`: > 42 µM (inactive); `CCOc1cc(C(=S)N2CCOCC2)ccc1OC(=O)c1ccc(C)cc1`: > 42 µM (inactive).
Take `CN(C)S(=O)(=O)c1ccc(Cl)c(NC(=O)CN2C(=O)NC(C)(C3CC3)C2=O)c1` (stereo not drawn): the AC50 was > 42 µM (inactive).
For the compound `O=C(CCC1CCCN(C(=O)Cc2cccc(F)c2)C1)N1CCN(c2ccccn2)CC1` (stereo not drawn), the AC50 is > 42 µM (inactive).
For `Cn1c(-c2ccc3c(c2)OCO3)cnc1NC(=O)CCC(=O)NCCc1ccccc1`, the AC50 is > 42 µM (inactive).
For the compound `CCc1ccc(-n2c(Cc3ccccc3)n[nH]c2=S)cc1`, the AC50 was > 42 µM (inactive).
The figure for `C(=N\Nc1ccc2nncn2n1)/c1ccccn1` is > 42 µM (inactive).
On to `N#CC1=C(N)Oc2c(ccc3ccccc23)C1c1cccs1` (stereo not drawn), for which the AC50 was > 42 µM (inactive).
As for `CC(C)(C)Cc1nc(-c2ccccn2)no1`, the AC50 is > 42 µM (inactive).
Next, `COc1cc(C(=O)OCC(=O)NCc2ccccc2)cc(NC(=O)c2ccco2)c1OC`: > 42 µM (inactive).
The figure for `CCOC(=O)c1ccc(CNC(=O)Cn2nnc(-c3ccc(C)cc3)n2)o1` is > 42 µM (inactive); for `COc1ccc(CN(CC(=O)NCc2ccco2)C(=O)CCC(=O)Nc2nccs2)cc1` it is > 42 µM (inactive).
With `CCOc1ccc(/C=N/NC(=O)c2ccc(CSc3nc4ccccc4[nH]3)cc2)cc1`, the AC50 is > 42 µM (inactive).
For `Cc1cc(/C=N/NC(=O)c2ccsc2)c(C)n1-c1cnccn1`, the AC50 is > 42 µM (inactive).
Turning to `Cc1cc(Cl)c2oc(C(=O)NC3CCC(O)CC3)c(C)c2c1` (stereo not drawn), the AC50 was > 42 µM (inactive).
With `CN(Cc1cccnc1)Cc1cn[nH]c1-c1ccc(-c2ccccc2)cc1`, the AC50 is > 42 µM (inactive).
Turning to `O=C(CSc1ccc(Br)cc1)Nc1ccccc1N1CCOCC1`, the AC50 is > 42 µM (inactive).
Take `O=C(NCc1cccnc1)C1CCN(S(=O)(=O)c2cccnc2)CC1`: the AC50 is > 42 µM (inactive).
Turning to `CCCCn1c(N)c(N(CCOC)C(=O)c2cnccn2)c(=O)[nH]c1=O`, the AC50 was > 42 µM (inactive).
In the case of `O=c1c2c(ncn1Cc1ccccc1)nc1n2CCC1`, the AC50 is > 42 µM (inactive).
With `Cc1ccc(N/N=C2/CCCNC2=O)cc1`, the AC50 was > 42 µM (inactive).
Take `O=C(Cc1cccs1)Nc1nnc(-c2ccncc2)s1`: the AC50 was > 42 µM (inactive).
Turning to `O=C(c1ccncc1)N(Cc1ccccc1)Cc1nc2ccccc2c(=O)[nH]1`, the AC50 is > 42 µM (inactive).
As to `CC(Oc1ccccc1[N+](=O)[O-])C(=O)N/N=C/c1ccoc1` (stereo not drawn), the AC50 is > 42 µM (inactive).
With `COc1ccc(NC(=O)c2ccc(-n3cncn3)c([N+](=O)[O-])c2)cc1`, the AC50 was > 21 µM (inactive).
On to `Cc1cccc(OCCN2CSC(=S)N(C)C2)c1`, for which the half-maximal activity concentration (AC50) is 3.7 µM.
Regarding `CC(=O)N1c2ccc([N+](=O)[O-])cc2NC(=O)CC1C` (stereo not drawn), the AC50 was > 42 µM (inactive).
For the compound `CN1CCCCC1=NCCCn1cnc2c1c(=O)n(C)c(=O)n2C`, the AC50 is > 42 µM (inactive).
As for `CS(=O)(=O)NCc1ccc(C(=O)NC2CCCCC2)cc1`, the AC50 was > 42 µM (inactive).
Regarding `COc1cc(OC)cc(OC(=O)c2ccc3c(=O)n4c(nc3c2)CCC4)c1`, the AC50 was > 42 µM (inactive).
For the compound `O=C(Cn1nc(C(F)(F)F)c2c1CCCC2)N1CCOCC1`, the AC50 is > 42 µM (inactive).
As to `Cc1cc(C)c(OCC(=O)N/N=C/c2ccco2)c(C)c1`, the AC50 was > 42 µM (inactive).
For the compound `Cc1nn(C)cc1CNC(=O)C1CCC(=O)N(Cc2cccc(C(F)(F)F)c2)C1` (stereo not drawn), the AC50 is > 42 µM (inactive).
In the case of `CCOC(=O)c1ccc(CNC(=O)C2CCCCC2C(=O)OCC(F)(F)F)o1` (stereo not drawn), the AC50 is > 42 µM (inactive).
For the compound `COc1cccc(/C=C2\SC(N3CCC(C)CC3)=NC2=O)c1OC`, the AC50 was > 42 µM (inactive).
`COc1ccc(NC(=O)c2cc(S(=O)(=O)Nc3ccc(OC)cc3)cs2)cc1`: the AC50 is > 42 µM (inactive).
Take `Cc1ccc(NC(=O)CC2CS(=O)(=O)CC2CC(=O)Nc2ccc(C)c(C)c2)cc1C` (stereo not drawn): the AC50 is > 42 µM (inactive).
Next, `CCNC(=O)NC1c2ccccc2CSc2ccccc21` (stereo not drawn): > 42 µM (inactive); `Cn1c(SCC(=O)Nc2ccc(N3CCOCC3)c(Cl)c2)nnc1-c1ccccc1`: > 42 µM (inactive); `CC(C)(C)C(=O)NC1(C(F)(F)F)NC(=O)N(c2ccccc2F)C1=O` (stereo not drawn): > 42 µM (inactive).
Take `N=c1c[n+](C2CCCCC2)[n-]o1`: the AC50 was > 42 µM (inactive).
In the case of `COc1ccc(NC2=C(C)C(=O)CC2)cc1`, the AC50 was > 42 µM (inactive).
For the compound `CCCCc1ccc(S(=O)(=O)NNC(=S)NCc2ccco2)cc1`, the AC50 is > 42 µM (inactive).
With `CC(=O)CSc1ncnc2sc3c(c12)CCCC3`, the AC50 was > 42 µM (inactive).
Turning to `COC(=O)C1CN(C#N)N(c2ccc(Cl)cc2)C12c1ccccc1-c1ccccc12` (stereo not drawn), the AC50 was 0.74 µM.
On to `CCCC(=O)Oc1c(S(=O)(=O)c2ccc(C)cc2)c(C)nn1C(C)(C)C`, for which the AC50 was > 42 µM (inactive).
As to `COc1ccc(NC(=O)c2ccccc2NC(=O)NC2CCCCC2)cc1`, the AC50 was > 42 µM (inactive).
Take `CCOC(=O)NC1(Nc2ccc(C)cc2)Oc2ccccc2O1`: the AC50 is > 42 µM (inactive).
Next, `CCCCn1c(/N=C/c2ccc3c(c2)OCO3)nc2ccccc21`: > 42 µM (inactive).
For `Cc1ccc(Oc2ccc(OCC(=O)Nc3ccncc3)cc2)cc1`, the AC50 was 23.5 µM.
For `CC1CCN(C(=O)c2[nH]cnc2C(=O)NCC(=O)OCc2ccccc2)CC1`, the AC50 is > 42 µM (inactive).
As for `CCCN1C(=O)c2ccc(C(=O)Nc3nccs3)cc2C1=O`, the AC50 was > 42 µM (inactive).
Next, `CCN(CC)S(=O)(=O)c1ccc(S(=O)(=O)N2CCC(C(=O)NC3CCN(Cc4ccccc4)CC3)CC2)cc1`: > 42 µM (inactive); `Cc1[nH]oc(=O)c1N=Nc1c(Cl)cccc1Cl`: 6.02 µM; `COc1cccc(-c2nn(-c3ccccc3)cc2/C=C(/NC(=O)c2ccccc2)C(=O)O)c1`: > 42 µM (inactive).
With `N/C(=N\OC(=O)CCC1CCCC1)c1ccc([N+](=O)[O-])cc1`, the AC50 is > 42 µM (inactive).
For the compound `O=S(=O)(NCC1CCCO1)c1cc(Cl)ccc1Br` (stereo not drawn), the AC50 is > 42 µM (inactive).
Next, `CN(CC(=O)Nc1ccccc1Sc1ccccc1)Cc1nc2ccccc2c(=O)[nH]1`: > 42 µM (inactive); `Cc1onc(-c2ccccc2)c1C(=O)N/N=C/C=C/c1ccccc1`: > 42 µM (inactive); `CC(=O)c1c(N)[nH]c(-c2ccccc2)nc1=S`: > 42 µM (inactive).
Consider `CCOC(=O)NNC(=O)CCn1c2c(c3ccccc31)CCCC2`, for which the AC50 is > 42 µM (inactive).
As to `O=C(Nc1ccccn1)c1ccc(CN(c2ccccc2)S(=O)(=O)c2ccccc2)cc1`, the AC50 is > 42 µM (inactive).
For the compound `COc1ccc(/C=N/NC(=O)CCC(=O)Nc2ccccc2)cc1OC`, the AC50 was > 42 µM (inactive).
With `C#CCn1c(=NC(=O)CN2C(=O)CCC2=O)sc2cccc(OC)c21`, the AC50 was > 42 µM (inactive).
On to `O=C(O)C1C(C(=O)O)C2(Cl)C(Cl)=C(Cl)C1(Cl)C2(Cl)Cl` (stereo not drawn), for which the AC50 was > 42 µM (inactive).
In the case of `Cc1ccc(SC[C@H](C)CN2CC[C@H](C)CCC2=O)cc1`, the AC50 was > 42 µM (inactive).
Regarding `Cn1c(CN2CCOCC2)nnc1SCC(N)=O`, the AC50 is > 42 µM (inactive).
Next, `COCCCn1c2nc3ccccc3nc2c2c(=O)n(Cc3ccc(Cl)cc3)cnc21`: > 42 µM (inactive).
For `C=CCN1c2ccccc2[C@]23C[C@@H](C(=O)OC)N=C2NC(C(=O)OC)=C(C(=O)OC)[C@H]13`, the AC50 was > 42 µM (inactive).
Take `c1ccc(-c2csc(NC3CCCCC3)n2)cc1`: the AC50 was > 42 µM (inactive).
For `CC1CC(C)(C)N(C(=O)CN2C(=O)CCC2=O)c2ccccc21` (stereo not drawn), the AC50 is > 42 µM (inactive).
Turning to `Oc1c(Cl)cc(Cl)c(Cl)c1Cc1c(O)c(Cl)cc(Cl)c1Cl`, the concentration at half-maximal activity (AC50) is 0.84 µM.
`O=C(NCC1CCCO1)C1CC(c2ccc(Cl)c(Cl)c2)=NO1` (stereo not drawn): the AC50 is > 42 µM (inactive).
For the compound `CCCCCCCCc1nc(SCC(C)=O)n[nH]1`, the AC50 was > 42 µM (inactive).

Broadly, the AC50 is the concentration at which the activity in the assay is half-maximal.
